The results in this text go back to ChEMBL document CHEMBL3739396, “5-Aryl-1-imino-1-oxo-[1,2,4]thiadiazines” (ACS Med Chem Lett, 2015).

pIC50: −log10 of the molar value.

The test addresses Beta-secretase 1 (Homo sapiens, UniProt P56817). Briefly: Inhibition of human BACE1 in HEK293 cells expressing APP assessed as decrease in amyloid beta-40 level after 18 to 20 hrs. It counts as cell-based.

Sequence of Beta-secretase 1 (P56817 whole entry): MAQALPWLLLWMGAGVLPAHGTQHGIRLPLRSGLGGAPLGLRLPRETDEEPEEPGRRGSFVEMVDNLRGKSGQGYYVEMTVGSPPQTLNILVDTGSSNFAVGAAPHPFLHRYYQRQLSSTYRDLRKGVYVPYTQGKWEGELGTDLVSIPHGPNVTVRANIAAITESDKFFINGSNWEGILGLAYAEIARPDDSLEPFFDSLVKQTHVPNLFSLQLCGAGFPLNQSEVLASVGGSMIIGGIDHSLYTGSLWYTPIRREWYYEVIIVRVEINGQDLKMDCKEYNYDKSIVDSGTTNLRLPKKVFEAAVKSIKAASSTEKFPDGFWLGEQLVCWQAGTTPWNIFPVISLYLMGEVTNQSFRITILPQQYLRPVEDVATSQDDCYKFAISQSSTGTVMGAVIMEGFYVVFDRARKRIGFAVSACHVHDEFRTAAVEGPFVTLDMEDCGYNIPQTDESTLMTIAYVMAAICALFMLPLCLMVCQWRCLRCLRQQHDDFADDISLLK

A word on the pIC50: it is the IC50 on a negative log10 scale, so that one unit is a factor of ten. Consider `C[C@@]1(c2cc(NC(=O)c3ccc(C#N)cn3)ccc2F)C[S@]2(=O)=NCCCCN2C(N)=N1`, for which the pIC50 was 8.70.

Regarding `C[C@@]1(c2cc(-c3cc(-c4ncc(Cl)cn4)no3)ccc2F)C[S@]2(=O)=NCCCCN2C(N)=N1`, the pIC50 was 8.02.

On to `C[C@@]1(c2cc(-c3cn(-c4ccc(C#N)cn4)nn3)ccc2F)C[S@]2(=O)=NCCCCN2C(N)=N1`, for which the pIC50 was 8.02.
